Source: the supplement of paper PMC10307832

Experiments:
Test in all cases: relative viability (nuclei count vs DMSO), 5 days (fraction); higher = more cells survive
YM155 + Lapatinib = compound: COCC[n+]1c2c(n(Cc3cnccn3)c1C)C(=O)c1ccccc1C2=O [YM155] + CS(=O)(=O)CCNCc1ccc(-c2ccc3ncnc(Nc4ccc(OCc5cccc(F)c5)c(Cl)c4)c3c2)o1 [Lapatinib] (partner 2 µM)
How it was run: (§1)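 A single step with final 0.05% Triton X-100, 1% formaldehyde and 1 ug/ml Hoechst fixed the cells and stained nuclei 5 days after treatment. Lung cancer cell lines in 1536-well plates had been treated by pin tool the day after seeding with one drug alone or a fixed anchor-drug dose plus five library-drug doses (not always all listed) in √10 steps, and nuclei were counted on 4× images. Relative viability is the ratio of nuclei in treated wells to nuclei in vehicle wells, taken as the median of duplicate plates.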

YM155 + Vorinostat = compound: COCC[n+]1c2c(n(Cc3cnccn3)c1C)C(=O)c1ccccc1C2=O [YM155] + O=C(CCCCCCC(=O)Nc1ccccc1)NO [Vorinostat] (partner 1 µM)
How it was run: as §1

Quizartinib + Vorinostat = compound: CC(C)(C)c1cc(NC(=O)Nc2ccc(-c3cn4c(n3)sc3cc(OCCN5CCOCC5)ccc34)cc2)no1 [Quizartinib] + O=C(CCCCCCC(=O)Nc1ccccc1)NO [Vorinostat] (partner 1 µM)
How it was run: as §1

Quizartinib + Phenformin = compound: CC(C)(C)c1cc(NC(=O)Nc2ccc(-c3cn4c(n3)sc3cc(OCCN5CCOCC5)ccc34)cc2)no1 [Quizartinib] + N=C(N)NC(=N)NCCc1ccccc1 [Phenformin] (partner 250 µM)
How it was run: as §1

## NCI-H1355
YM155 + Lapatinib; first compound 0.002 µM
  relative viability: 0.934
YM155 + Lapatinib; first compound 0.006325 µM
  relative viability: 1.04
YM155 + Lapatinib; first compound 0.02 µM
  relative viability: 0.996
YM155 + Lapatinib; first compound 0.06325 µM
  relative viability: 1.02
YM155 + Vorinostat; first compound 0.002 µM
  relative viability: 0.58
YM155 + Vorinostat; first compound 0.006325 µM
  relative viability: 0.615
YM155 + Vorinostat; first compound 0.02 µM
  relative viability: 0.718
YM155 + Vorinostat; first compound 0.06325 µM
  relative viability: 0.635
Quizartinib + Vorinostat; first compound 0.001 µM
  relative viability: 0.631
Quizartinib + Vorinostat; first compound 0.003162 µM
  relative viability: 0.607
Quizartinib + Vorinostat; first compound 0.01 µM
  relative viability: 0.627
Quizartinib + Vorinostat; first compound 0.03162 µM
  relative viability: 0.647
Quizartinib + Vorinostat; first compound 0.1 µM
  relative viability: 0.647
Quizartinib + Phenformin; first compound 0.001 µM
  relative viability: 0.426
Quizartinib + Phenformin; first compound 0.003162 µM
  relative viability: 0.434
Quizartinib + Phenformin; first compound 0.01 µM
  relative viability: 0.437
Quizartinib + Phenformin; first compound 0.03162 µM
  relative viability: 0.426
Quizartinib + Phenformin; first compound 0.1 µM
  relative viability: 0.415

## NCI-H1395
YM155 + Lapatinib; first compound 0.002 µM
  relative viability: 1.06
YM155 + Lapatinib; first compound 0.006325 µM
  relative viability: 1.05
YM155 + Lapatinib; first compound 0.02 µM
  relative viability: 1.25
YM155 + Lapatinib; first compound 0.06325 µM
  relative viability: 1.13
YM155 + Vorinostat; first compound 0.002 µM
  relative viability: 0.691
YM155 + Vorinostat; first compound 0.006325 µM
  relative viability: 0.727
YM155 + Vorinostat; first compound 0.02 µM
  relative viability: 0.864
YM155 + Vorinostat; first compound 0.06325 µM
  relative viability: 0.696
Quizartinib + Vorinostat; first compound 0.001 µM
  relative viability: 0.685
Quizartinib + Vorinostat; first compound 0.003162 µM
  relative viability: 1.09
Quizartinib + Vorinostat; first compound 0.01 µM
  relative viability: 0.695
Quizartinib + Vorinostat; first compound 0.03162 µM
  relative viability: 0.623
Quizartinib + Vorinostat; first compound 0.1 µM
  relative viability: 0.858
Quizartinib + Phenformin; first compound 0.001 µM
  relative viability: 0.437
Quizartinib + Phenformin; first compound 0.003162 µM
  relative viability: 0.447
Quizartinib + Phenformin; first compound 0.01 µM
  relative viability: 0.46
Quizartinib + Phenformin; first compound 0.03162 µM
  relative viability: 0.468
Quizartinib + Phenformin; first compound 0.1 µM
  relative viability: 0.494

## NCI-H1437
YM155 + Lapatinib; first compound 0.002 µM
  relative viability: 0.72
YM155 + Lapatinib; first compound 0.006325 µM
  relative viability: 0.784
YM155 + Lapatinib; first compound 0.02 µM
  relative viability: 0.767
YM155 + Lapatinib; first compound 0.06325 µM
  relative viability: 0.708
YM155 + Vorinostat; first compound 0.002 µM
  relative viability: 0.83
YM155 + Vorinostat; first compound 0.006325 µM
  relative viability: 0.809
YM155 + Vorinostat; first compound 0.02 µM
  relative viability: 0.833
YM155 + Vorinostat; first compound 0.06325 µM
  relative viability: 0.432
Quizartinib + Vorinostat; first compound 0.001 µM
  relative viability: 0.606
Quizartinib + Vorinostat; first compound 0.003162 µM
  relative viability: 0.81
Quizartinib + Vorinostat; first compound 0.01 µM
  relative viability: 0.78
Quizartinib + Vorinostat; first compound 0.03162 µM
  relative viability: 0.758
Quizartinib + Vorinostat; first compound 0.1 µM
  relative viability: 0.591
Quizartinib + Phenformin; first compound 0.001 µM
  relative viability: 0.274
Quizartinib + Phenformin; first compound 0.003162 µM
  relative viability: 0.277
Quizartinib + Phenformin; first compound 0.01 µM
  relative viability: 0.294
Quizartinib + Phenformin; first compound 0.03162 µM
  relative viability: 0.208
Quizartinib + Phenformin; first compound 0.1 µM
  relative viability: 0.172

## NCI-H1650
YM155 + Lapatinib; first compound 0.002 µM
  relative viability: 0.674
YM155 + Lapatinib; first compound 0.006325 µM
  relative viability: 0.787
YM155 + Lapatinib; first compound 0.02 µM
  relative viability: 0.988
YM155 + Lapatinib; first compound 0.06325 µM
  relative viability: 0.488
YM155 + Vorinostat; first compound 0.002 µM
  relative viability: 0.545
YM155 + Vorinostat; first compound 0.006325 µM
  relative viability: 0.427
YM155 + Vorinostat; first compound 0.02 µM
  relative viability: 0.468
YM155 + Vorinostat; first compound 0.06325 µM
  relative viability: 0.3
Quizartinib + Vorinostat; first compound 0.001 µM
  relative viability: 0.499
Quizartinib + Vorinostat; first compound 0.003162 µM
  relative viability: 0.581
Quizartinib + Vorinostat; first compound 0.01 µM
  relative viability: 0.635
Quizartinib + Vorinostat; first compound 0.1 µM
  relative viability: 0.445
Quizartinib + Phenformin; first compound 0.001 µM
  relative viability: 0.418
Quizartinib + Phenformin; first compound 0.003162 µM
  relative viability: 0.585
Quizartinib + Phenformin; first compound 0.01 µM
  relative viability: 0.382
Quizartinib + Phenformin; first compound 0.1 µM
  relative viability: 0.417

## NCI-H1651
YM155 + Lapatinib; first compound 0.002 µM
  relative viability: 0.869
YM155 + Lapatinib; first compound 0.006325 µM
  relative viability: 0.861
YM155 + Lapatinib; first compound 0.02 µM
  relative viability: 0.726
YM155 + Lapatinib; first compound 0.06325 µM
  relative viability: 0.601
YM155 + Vorinostat; first compound 0.002 µM
  relative viability: 0.569
YM155 + Vorinostat; first compound 0.006325 µM
  relative viability: 0.538
YM155 + Vorinostat; first compound 0.02 µM
  relative viability: 0.586
YM155 + Vorinostat; first compound 0.06325 µM
  relative viability: 0.605
Quizartinib + Vorinostat; first compound 0.001 µM
  relative viability: 0.535
Quizartinib + Vorinostat; first compound 0.003162 µM
  relative viability: 0.64
Quizartinib + Vorinostat; first compound 0.01 µM
  relative viability: 0.551
Quizartinib + Vorinostat; first compound 0.03162 µM
  relative viability: 0.527
Quizartinib + Vorinostat; first compound 0.1 µM
  relative viability: 0.612
Quizartinib + Phenformin; first compound 0.001 µM
  relative viability: 0.41
Quizartinib + Phenformin; first compound 0.003162 µM
  relative viability: 0.268
Quizartinib + Phenformin; first compound 0.01 µM
  relative viability: 0.35
Quizartinib + Phenformin; first compound 0.03162 µM
  relative viability: 0.231
Quizartinib + Phenformin; first compound 0.1 µM
  relative viability: 0.272
